From patent US20200361895A1, “NOVEL SULFONAMIDE CARBOXAMIDE COMPOUNDS” (Inflazome Limited, priority 2017, published 2020) come the findings set out here.

Where a name gives a salt, the structure may show the parent alone. Read-outs that look alike come from different tables or passages of the source.

The nature of series [1]: PK protocol, intravenous administration. Type of series: in vivo, male Sprague Dawley rats. The conditions noted are these: male, Sprague Dawley, plasma, rat; for Vd: read-out: Vdss. The procedure: (§1) Pharmacokinetic parameters were determined in male Sprague Dawley rats (Charles River, UK, 250-350 g; or Vital River Laboratory Animal Technology Co Ltd, Beijing, China, 7-9 weeks old). Animals were individually housed during the study and maintained under a 12 h light/dark cycle. Animals had free access to food and water.
(§2) For intravenous administration, compounds were formulated as a solution in water or DMSO:PBS [10:90] in 2 mL/kg dosing volume and administered via tail vein. For oral administration, compounds were formulated as a solution in DMSO:water [10:90] in 5 mL/kg dosing volume and administered orally.
(§3) Serial blood samples (about 120-300 μL) were taken from each animal at each of 8 time-points post dose (0.083, 0.25, 0.5, 1, 2, 4, 8 and 24 h) or at each of 12 time-points post dose (0.03, 0.1, 0.17, 0.25, 0.5, 1, 2, 4, 6, 8, 12 and 24 h) or pre-dose and at each of 9 time-points post dose (0.25, 0.5, 1, 2, 4, 6, 8, 12 and 24 h). Samples were held on ice for no longer than 30 minutes before centrifugation (10,000 rpm (8,385 g) for 3 minutes; or 5,696 rpm (3,000 g) for 15 minutes) for plasma generation. Plasma was frozen on dry ice prior to bioanalysis. PK parameters were generated from LC-MS/MS data using Dotmatics or Phoenix WinNonlin 6.3 software.

The nature of series [2]: PK protocol, oral administration. Type of series: in vivo. As to conditions: rat, male Sprague Dawley rats, 3 mg/kg, solution in DMSO:water [10:90], plasma. The procedure: as §1, §2, §3
Series [3] has as its target T1, NLRP3 (Homo sapiens, UniProt Q96P20). The series can be described thus: THP-1 cells pyroptosis assay (LPS + nigericin, resazurin readout; THP IC50). Type of series: cell-based. Also noted: Seed THP-1 cells (25,000 cells/well) containing 1.0 μg/ml LPS in 40 μl of RPMI medium; host or cells: THP-1 cells. A digest of the protocol:
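IC50 from 4-parameter fit of resazurin fluorescence (100 μM, 1-2 hrs), reflecting surviving cells after pyroptosis. LPS-primed (1 μg/ml) THP-1 cells in FBS-free RPMI got compound for 3 hrs at 37° C (top 10 μM, half-log, 8 points), then nigericin 5 μM for 1 hr.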
(In general: Alamar Blue is a resazurin reagent that responds to reducing activity.)

Series [4] deals with T1, NLRP3. Nature of the series: Human whole blood IL1β release assay (LPS + nigericin, AlphaLisa IL-1β; HWB IC50). The conditions noted are these: IL-1β release. Also noted: Human whole blood in Li-heparin tubes was obtained from healthy donors from a volunteer donor panel; from tissue; host or cells: human whole blood from healthy donors. Type of series: cell-based. A digest of the protocol: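 IL-1β in plasma supernatant quantified by AlphaLisa after nigericin (10 μM final, 1 h, 37 °C) triggering of human whole blood that had been preincubated 3 h with LPS (1 μg/ml) plus compound (half-log, 8 points, from 10 μM). IC50 by variable-slope four-parameter regression.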
Background: In Alpha technology, singlet oxygen from a donor bead excites a nearby acceptor bead.

T1 sequence (Q96P20 whole entry): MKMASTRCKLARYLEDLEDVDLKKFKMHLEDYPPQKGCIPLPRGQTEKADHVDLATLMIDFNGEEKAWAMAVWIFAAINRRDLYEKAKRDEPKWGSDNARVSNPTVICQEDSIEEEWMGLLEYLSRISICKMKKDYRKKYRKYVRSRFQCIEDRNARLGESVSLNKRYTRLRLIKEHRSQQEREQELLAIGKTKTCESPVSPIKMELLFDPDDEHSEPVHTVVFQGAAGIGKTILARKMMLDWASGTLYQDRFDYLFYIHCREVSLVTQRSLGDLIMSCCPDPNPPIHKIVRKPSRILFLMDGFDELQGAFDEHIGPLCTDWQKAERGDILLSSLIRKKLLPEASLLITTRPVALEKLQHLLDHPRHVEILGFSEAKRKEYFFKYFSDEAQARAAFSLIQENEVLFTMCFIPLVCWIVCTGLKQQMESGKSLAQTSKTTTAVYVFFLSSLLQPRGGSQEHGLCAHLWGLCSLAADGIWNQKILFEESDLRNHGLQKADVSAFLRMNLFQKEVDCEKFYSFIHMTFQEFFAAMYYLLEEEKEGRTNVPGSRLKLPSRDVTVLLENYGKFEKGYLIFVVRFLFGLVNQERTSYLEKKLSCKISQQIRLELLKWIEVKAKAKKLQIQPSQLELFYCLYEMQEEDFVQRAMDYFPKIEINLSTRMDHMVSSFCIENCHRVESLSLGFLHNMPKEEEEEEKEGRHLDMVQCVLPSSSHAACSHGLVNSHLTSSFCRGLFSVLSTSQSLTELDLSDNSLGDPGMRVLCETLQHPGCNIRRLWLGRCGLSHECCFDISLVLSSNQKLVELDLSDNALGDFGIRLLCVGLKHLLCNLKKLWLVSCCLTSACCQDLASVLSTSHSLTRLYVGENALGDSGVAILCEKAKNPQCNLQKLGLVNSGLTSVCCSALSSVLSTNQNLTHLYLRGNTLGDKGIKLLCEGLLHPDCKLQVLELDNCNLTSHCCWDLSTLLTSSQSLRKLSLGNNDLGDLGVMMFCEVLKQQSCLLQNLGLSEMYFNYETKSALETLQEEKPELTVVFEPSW

`COc1cc(-c2ccc3c(c2NC(=O)NS(=O)(=O)c2ccn(C4CC4)n2)CCC3)ccn1` [Example 221, 1-Cyclopropyl-N-((5-(2-methoxypyridin-4-yl)-2,3-dihydro-1H-inden-4-yl)carbamoyl)-1H-pyrazole-3-sulfonamide, sodium salt]: in series [1] (dose 1 mg/kg), the area under the curve (AUC) (commonly the area under the concentration-time curve, a measure of exposure) is 65400 ng·h/mL; the clearance (as a rule, the volume of plasma or blood freed of the substance per unit of time) was 0.39 mL/min/kg; the half-life – broadly, the time in which the quantity being followed falls by half – is 900 min; the Vd came out at 0.36 L/kg. Moreover, in series [2], the area under the curve (AUC) was found to be 136000 ng·h/mL; the CL/F (commonly the apparent clearance, not corrected for the fraction that reaches the circulation) came to 0.48 mL/min/kg; the peak concentration (Cmax) (commonly the highest concentration seen after dosing) worked out at 7220 ng/mL; the time to peak (Tmax) – broadly, the time from dosing to the highest level – stood at 45 min. Also, in series [2], the half-life is 720 min and the bioavailability (usually the share of a dose that reaches the circulation, judged against a reference dose that is usually intravenous) is 83%. Further, the IC50 (in general, the concentration at which inhibition is half-maximal) in series [3] was ≤ 500 nM. Moreover, in series [4], the 50% inhibitory concentration (IC50) was ≤ 500 nM.
Take `COc1cc(-c2ccc3c(c2NC(=O)NS(=O)(=O)c2ccn(C(C)(C)CN(C)C)n2)CCC3)ccn1` [Example 69, 1-(1-(Dimethylamino)-2-methylpropan-2-yl)-N-((5-(2-methoxypyridin-4-yl)-2,3-dihydro-1H-inden-4-yl)carbamoyl)-1H-pyrazole-3-sulfonamide]: in series [1] (dose 1 mg/kg), the exposure (AUC) amounted to 896 ng·h/mL, the clearance was found to be 19 mL/min/kg, the half-life was 348 min and the Vd worked out at 0.78 L/kg. Further, in series [2], the AUC was 504 ng·h/mL, the CL/F amounted to 112 mL/min/kg, the Cmax came out at 113 ng/mL and the time to peak (Tmax) was 30 min. Moreover, in series [2], the half-life was 300 min and the bioavailability came to 19%. In addition, the IC50 in series [3] was ≤ 500 nM. Moreover, in series [4], the half-inhibitory concentration (IC50) is ≤ 500 nM.
Take `CC(C)c1cc(F)cc(-c2ccnc(C#N)c2)c1NC(=O)NS(=O)(=O)c1cn(C(C)C)cn1` [Example 54, N-((2-(2-Cyanopyridin-4-yl)-4-fluoro-6-isopropylphenyl)carbamoyl)-1-isopropyl-1H-imidazole-4-sulfonamide]: in series [1] (dose 1 mg/kg), the AUC stood at 200 ng·h/mL, the clearance was 85.4 mL/min/kg, the half-life is 96 min and the Vd was 2.5 L/kg. In addition, the IC50 in series [3] was ≤ 500 nM. In series [4], the IC50 is ≤ 500 nM.
As to `CC(C)c1cc(F)cc(-c2ccncc2)c1NC(=O)NS(=O)(=O)c1ccn(C(C)C)n1` [Example 10, N-((4-Fluoro-2-iso-propyl-6-(pyridin-4-yl)phenyl)carbamoyl)-1-iso-propyl-1H-pyrazole-3-sulfonamide, partial ammonium salt], in series [1] (dose 1.98 mg/kg), the AUC came to 806 ng·h/mL, the clearance was found to be 40.9 mL/min/kg, the half-life was 228 min and the Vd turned out to be 7.14 L/kg. For the same molecule, the concentration for half-maximal inhibition (IC50) in series [3] was ≤ 500 nM. Moreover, the IC50 in series [4] was ≤ 500 nM.
